According to patent US10441648B2, “Mycobacterium antigenic composition” (priority 2010, dated 2019):
Read-outs that look alike come from different tables or passages of the source.

Experiments:
[1] = Conductivity determination (Malvern Zetasizer Nano); format: physicochemical
Procedure: A range of standards having sodium chloride concentrations of 0, 75, 100, 150, 250 and 300 mM were prepared from a stock solution of 1500 mM sodium chloride by dilution in water for injection.
Immunogenic compositions were prepared using M72 with two N-terminal His residues according to the procedures provided in Example 8. To investigate the contribution from the antigen itself and any residual materials in the purified bulk, placebo lyophilisation cakes were also prepared by excluding the antigen component.
Using a Malvern Zetasizer Nano and 1.5 ml of each sample in folded capillary cells, a voltage of 30 to 150 V (determined automatically by the instrument) was applied and the conductivity determined.

[2] = test system: chicken Red Blood cells (RBC); test: QS21 lytic activity, haemolysis assay (limit test); format: cell-based
Procedure: QS21 is known to lyse red blood cells (RBC).
QS21 lytic activity was measured by a haemolysis assay using chicken Red Blood cells (RBC). RBC were centrifuged at 550 g at 4° C. Supernatant was discarded. The pellet was carefully resuspended in PBS buffer to reach the initial volume and the same operation was repeated until supernatant was no longer red (generally 3 times). The pellet was stored at 4° C. for 3 to 4 days maximum if not used directly (and washed again the day it is used) or was diluted around 10 times in buffer if used the same day.
A QS21 dose range curve was prepared in ASA buffer (in salt or in sorbitol buffer following the ASA sample tested) extemporaneously and the adjuvant samples (containing a 50 ug or 90 ug equivalent of QS21 meaning the equivalent of 500 ul or 900 ul ASA) were prepared. Final volume was adjusted to 900 ul in standards and samples with adequate buffer (containing or not sorbitol as a function of the buffer of the sample tested). Due to its opalescence, ASA interferes with optical density (OD). ASA “blanks” were thus prepared and their OD was subtracted from the OD of ASA tested samples. Those blanks corresponded to the same ASA volume as the volume tested in samples, but adjusted to 1 ml with buffer. No RBC were added to these blanks. Standards and samples were then incubated with RBC (100 ul of diluted RBC added to 900 ul of standards and samples) for 30 minutes at room temperature (RT). Samples were then centrifuged 5 minutes at 900 g. Optical density at 540 nm was measured after centrifugation.
Determination of lytic activity was carried out by a limit test.
1. Limit of detection (LOD) was defined as the lowest concentration of QS21 leading to an OD: • Higher than the base level (OD>0.1) • Around three times higher than OD's buffer (the “0 ug” QS21) • In the ascendant part of the curve • Determined for each test.
2. QS21 lytic activity was held to be positive in the adjuvant samples if the OD for the adjuvant sample was greater than the ODLOD. […]

[3] = DLS and nephelometry of Mtb72f at varied pH and NaCl; format: physicochemical; conditions: pH 6.1, 7.5, 8.5; 0, 150, 450 mM sodium chloride; 24 hours at 4° C. or 25° C.
[4] = DLS antigen size of M72 at varied pH and NaCl (salting out); format: physicochemical
Procedure: Purified bulk antigen (M72 with two N-terminal His residues, SEQ ID No: 3, as prepared in Example 8) was diluted to a concentration of 100 ug/ml in three different buffers (10 mM phosphate buffer at pH 6.1, 20 mM Tris buffer at pH 7.5 and 20 mM Tris buffer at pH 8.5) containing final sodium chloride concentrations of 0, 50, 150, 300 and 450 mM.
Samples were analysed immediately (TO), stored overnight at 4° C. before analysis (T0 O/N) or stored at 25° C. for 24 hours before analysis (T24 h 25° C.).
DLS was performed using a Malvern Zetasizer Nano ZS from Malvern Instruments (UK). The instrument was operated using a laser wavelength of 633 nm and power of 4 mW. Scattered light was detected at 173° at a temperature of 22° C. The Z-average diameter (Zav) and polydispersity index (pi) are calculated by the instrument software.

[5] = pH 6.1, even in the absence of sodium chloride
[6] = pH 7.5 or 8.5, over 24 hours at 25° C., particularly 0 or 50 mM sodium chloride
[7] = pH 7.5 or 8.5, sodium chloride increased to 150 mM or greater

## [Cl-].[Na+] [sodium chloride]
[1]; sodium chloride standard solution 75 mM in water for injection
  Conductivity: 8.2 mS/cm
[1]; sodium chloride standard solution 100 mM
  Conductivity: 10.7 mS/cm
[1]; sodium chloride standard solution 150 mM
  Conductivity: 15.6 mS/cm
[1]; sodium chloride standard solution 250 mM
  Conductivity: 23.9 mS/cm
[1]; sodium chloride standard solution 300 mM
  Conductivity: 30.0 mS/cm

## QS21
[2]; 0.5 ug QS21, 150 mM sodium chloride buffer, optical density at 540 nm, 30 minutes RT with RBC
  OD: 0.052
[2]; 0.6 ug QS21, 150 mM sodium chloride buffer, 540 nm
  OD: 0.073
[2]; 0.7 ug QS21, 150 mM sodium chloride buffer, 540 nm
  OD: 0.091
[2]; 0.8 ug QS21, 150 mM sodium chloride buffer, 540 nm
  OD: 0.096
[2]; 0.9 ug QS21 (limit of detection), 150 mM sodium chloride buffer, 540 nm
  OD: 0.12
[2]; 1 ug QS21, 150 mM sodium chloride buffer, 540 nm
  OD: 0.195
[2]; 1.1 ug QS21, 150 mM sodium chloride buffer, 540 nm
  OD: 0.212
[2]; 1.2 ug QS21, 150 mM sodium chloride buffer, 540 nm
  OD: 0.348
[2]; 1.3 ug QS21, 150 mM sodium chloride buffer, 540 nm
  OD: 0.479
[2]; 1.4 ug QS21, 150 mM sodium chloride buffer, 540 nm
  OD: 0.612
[2]; 1.5 ug QS21, 150 mM sodium chloride buffer, 540 nm
  OD: 0.669
[2]; 2 ug QS21, 150 mM sodium chloride buffer, 540 nm
  OD: 1.139
[2]; 2.5 ug QS21, 150 mM sodium chloride buffer, 540 nm
  OD: 1.294
[2]; 3 ug QS21, 150 mM sodium chloride buffer, 540 nm
  OD: 1.391
[2]; 5 ug QS21, 150 mM sodium chloride buffer, 540 nm
  OD: 1.416

B1: Mtb72f: purified bulk antigen, Mtb72f with 6 his residues, SEQ ID No: 7 (protein)
chain: MHHHHHHTAASDNFQLSQGGQGFAIPIGQAMAIAGQIRSGGGSPTVHIGPTAFLGLGVVDNNGNGARVQRVVGSAPAASLGISTGDVITAVDGAPINSATAMADALNGHHPGDVISVTWQTKSGGTRTGNVTLAEGPPAEFMVDFGALPPEINSARMYAGPGSASLVAAAQMWDSVASDLFSAASAFQSVVWGLTVGSWIGSSAGLMVAAASPYVAWMSVTAGQAELTAAQVRVAAAAYETAYGLTVPPPVIAENRAELMILIATNLLGQNTPAIAVNEAEYGEMWAQDAAAMFGYAAATATATATLLPFEEAPEMTSAGGLLEQAAAVEEASDTAAANQLMNNVPQALQQLAQPTQGTTPSSKLGGLWKTVSPHRSPISNMVSMANNHMSMTNSGVSMTNTLSSMLKGFAPAAAAQAVQTAAQNGVRAMSSLGSSLGSSGLGGGVAANLGRAASVGSLSVPQAWAAANQAVTPAARALPLTSLTSAAERGPGQMLGGLPVGQMGARAGGGLSGVLRVPPRPYVMPHSPAAGDIAPPALSQDRFADFPALPLDPSAMVAQVGPQVVNINTKLGYNNAVGAGTGIVIDPNGVVLTNNHVIAGATDINAFSVGSGQTYGVDVVGYDRTQDVAVLQLRGAGGLPSAAIGGGVAVGEPVVAMGNSGGQGGTPRAVPGRVVALGQTVQASDSLTGAEETLNGLIQFDAAIQPGDSGGPVVNGLGQVVGMNTAAS
modifications: 6 His tag; Mtb72f fusion with 6 additional his residues
[3]
  sensitivity of size (DLS and nephelometry) to salt and pH: sensitive to salt concentration and pH

B2: M72: purified bulk antigen, M72 with two N-terminal His residues, SEQ ID No: 3 (protein)
chain: MHHTAASDNFQLSQGGQGFAIPIGQAMAIAGQIRSGGGSPTVHIGPTAFLGLGVVDNNGNGARVQRVVGSAPAASLGISTGDVITAVDGAPINSATAMADALNGHHPGDVISVTWQTKSGGTRTGNVTLAEGPPAEFMVDFGALPPEINSARMYAGPGSASLVAAAQMWDSVASDLFSAASAFQSVVWGLTVGSWIGSSAGLMVAAASPYVAWMSVTAGQAELTAAQVRVAAAAYETAYGLTVPPPVIAENRAELMILIATNLLGQNTPAIAVNEAEYGEMWAQDAAAMFGYAAATATATATLLPFEEAPEMTSAGGLLEQAAAVEEASDTAAANQLMNNVPQALQQLAQPTQGTTPSSKLGGLWKTVSPHRSPISNMVSMANNHMSMTNSGVSMTNTLSSMLKGFAPAAAAQAVQTAAQNGVRAMSSLGSSLGSSGLGGGVAANLGRAASVGSLSVPQAWAAANQAVTPAARALPLTSLTSAAERGPGQMLGGLPVGQMGARAGGGLSGVLRVPPRPYVMPHSPAAGDIAPPALSQDRFADFPALPLDPSAMVAQVGPQVVNINTKLGYNNAVGAGTGIVIDPNGVVLTNNHVIAGATDINAFSVGSGQTYGVDVVGYDRTQDVAVLQLRGAGGLPSAAIGGGVAVGEPVVAMGNSGGQGGTPRAVPGRVVALGQTVQASDSLTGAEETLNGLIQFDAAIQPGDAGGPVVNGLGQVVGMNTAAS
modifications: M72 fusion with 2 additional his residues
[4]; pH 6.1, 0 mM sodium chloride, T0
  antigen size (DLS): 35 nm
[4]; pH 6.1, 50 mM sodium chloride, T0
  antigen size (DLS): 58 nm
[4]; pH 6.1, 50 mM sodium chloride, after 24 hours at 25° C.
  antigen size (DLS): 79 nm
[4]; [5]
  stability of antigen size: not stable
[4]; [6]
  stability of antigen size: relatively stable
[4]; [7]
  change in antigen size: clear increase
[5]
  stability of antigenicity: not stable
[6]
  stability of antigenicity: relatively stable
[7]
  change in antigenicity: reduction
